System: peripheral blood mononuclear cells
Assay: T-cell promiscuity in unimmunized humans: PBMC proliferation with lipopeptide (3H-thymidine incorporation)
Assay type: cell-based, human
Conditions: PBMC 3×10^5/well, 5-6 days with lipopeptide, responder = ≧2 S.I. (cpm with antigen/cpm media only)

With Tetanus toxoid as the substance, how does the Responder/Total read?
Its Responder/Total is 10/21.
